Data published in PubChem BioAssay AID1963863 (Molecular Pharmacology Branch, DTP, NCI, 2024).

Tested on: 931267-113-T-J1-PDC KRAS spheroid with HUVEC/MSC, viability
Assay: Anticancer human tumor 931267-113-T-J1-PDC patient-derived colon adenocarcinoma cell line growth inhibition [KRAS2]
Conditions: for IC50: curve of first compound; for viability, T/C: stronger effect = lower value
Outline: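 KRAS-mutant tumor cells were grown as spheroids with HUVEC endothelial cells and human MSCs as stroma. Targeted agents were tested alone and with KRAS pathway inhibitors. Doses started at or near clinical Cmax, or 10 microM, descending half-log.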

[1] = second compound 0.1 µM, first compound 0.0316 µM
[2] = second compound 0.1 µM, first compound 0.1 µM
[3] = second compound 0.316 µM, first compound 0.0316 µM
[4] = second compound 0.316 µM, first compound 0.1 µM
[5] = second compound 1 µM, first compound 0.0316 µM
[6] = second compound 1 µM, first compound 0.1 µM
[7] = second compound 3.16 µM, first compound 0.0316 µM
[8] = second compound 3.16 µM, first compound 0.1 µM
[9] = second compound 10 µM, first compound 0.0316 µM
[10] = second compound 10 µM, first compound 0.1 µM
[11] = second compound 0.1 µM, first compound 0.316 µM
[12] = second compound 0.1 µM, first compound 1 µM
[13] = second compound 0.1 µM, first compound 3.16 µM
[14] = second compound 0.1 µM, first compound 10 µM
[15] = second compound 0.316 µM, first compound 0.316 µM
[16] = second compound 0.316 µM, first compound 1 µM
[17] = second compound 0.316 µM, first compound 3.16 µM
[18] = second compound 0.316 µM, first compound 10 µM
[19] = second compound 1 µM, first compound 0.316 µM
[20] = second compound 1 µM, first compound 1 µM
[21] = second compound 1 µM, first compound 3.16 µM
[22] = second compound 1 µM, first compound 10 µM
[23] = second compound 3.16 µM, first compound 0.316 µM
[24] = second compound 3.16 µM, first compound 1 µM
[25] = second compound 3.16 µM, first compound 3.16 µM
[26] = second compound 3.16 µM, first compound 10 µM
[27] = second compound 10 µM, first compound 0.316 µM
[28] = second compound 10 µM, first compound 1 µM
[29] = second compound 10 µM, first compound 3.16 µM
[30] = second compound 10 µM, first compound 10 µM
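Further: compound exposure lasted 7 days before the readout.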
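Wherever viability, T/C is given: 100% = DMSO vehicle control viability.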

Row | SMILES | IC50 (second compound 0.1 µM) | IC50 (second compound 0.316 µM) | IC50 (second compound 1 µM) | IC50 (second compound 3.16 µM) | IC50 (second compound 10 µM) | viability, T/C [1] | viability, T/C [2] | viability, T/C [3] | viability, T/C [4] | viability, T/C [5] | viability, T/C [6] | viability, T/C [7] | viability, T/C [8] | viability, T/C [9] | viability, T/C [10] | viability, T/C [11] | viability, T/C [12] | viability, T/C [13] | viability, T/C [14] | viability, T/C [15] | also measured
1 | CC(C)n1nc(-c2ccc3oc(N)nc3c2)c2c(N)ncnc21 + CNCc1ccccc1-c1csc(C(C)Nc2nc(C)nc3cc(OC)c(OC)cc23)c1 | 6.18 nM | 4.24 nM | 1.01 nM | < 0.316 nM | < 0.316 nM | 24.2% | 27.2% | 27.7% | 19.8% | 12.7% | 5.59% | 0.07% | 0.21% | 0.33% | 0.4% | – | – | – | – | – | viability, T/C (second compound 0.1 µM, first compound 0.000316 µM): 87.3%; viability, T/C (second compound 0.1 µM, first compound 0.001 µM): 87.7%; viability, T/C (second compound 0.1 µM, first compound 0.00316 µM): 68.4%; viability, T/C (second compound 0.1 µM, first compound 0.01 µM): 37.2%; viability, T/C (second compound 0.316 µM, first compound 0.000316 µM): 85.6%; viability, T/C (second compound 0.316 µM, first compound 0.001 µM): 67.8%; viability, T/C (second compound 0.316 µM, first compound 0.00316 µM): 55.5%; viability, T/C (second compound 0.316 µM, first compound 0.01 µM): 38.7%; viability, T/C (second compound 1 µM, first compound 0.000316 µM): 51.3%; viability, T/C (second compound 1 µM, first compound 0.001 µM): 57.2%; viability, T/C (second compound 1 µM, first compound 0.00316 µM): 33.2%; viability, T/C (second compound 1 µM, first compound 0.01 µM): 24.1%; viability, T/C (second compound 3.16 µM, first compound 0.000316 µM): 0.15%; viability, T/C (second compound 3.16 µM, first compound 0.001 µM): 0.12%; viability, T/C (second compound 3.16 µM, first compound 0.00316 µM): 0.09%; viability, T/C (second compound 3.16 µM, first compound 0.01 µM): 0.08%; viability, T/C (second compound 10 µM, first compound 0.000316 µM): 0.19%; viability, T/C (second compound 10 µM, first compound 0.001 µM): 0.81%; viability, T/C (second compound 10 µM, first compound 0.00316 µM): 0.23%; viability, T/C (second compound 10 µM, first compound 0.01 µM): 0.29%
2 | CC1(C)CCC(CN2CCN(c3ccc(C(=O)NS(=O)(=O)c4ccc(NCC5CCOCC5)c([N+](=O)[O-])c4)c(Oc4cnc5[nH]ccc5c4)c3)CC2)=C(c2ccc(Cl)cc2)C1 + CNCc1ccccc1-c1csc(C(C)Nc2nc(C)nc3cc(OC)c(OC)cc23)c1 | 1920 nM | 1750 nM | < 31.6 nM | < 31.6 nM | < 31.6 nM | 107% | 95.7% | 82.6% | 69.5% | 41.8% | 47.4% | 0.12% | 0.09% | 0.18% | 0.28% | 106% | 83.6% | 24% | 4.79% | 83.6% | viability, T/C [16]: 81.1%; viability, T/C [17]: 19.3%; viability, T/C [18]: 1.1%; viability, T/C [19]: 54%; viability, T/C [20]: 39.2%; viability, T/C [21]: 4.62%; viability, T/C [22]: 0.48%; viability, T/C [23]: 0.2%; viability, T/C [24]: 0.08%; viability, T/C [25]: 0.05%; viability, T/C [26]: 0.38%; viability, T/C [27]: 0.14%; viability, T/C [28]: 0.17%; viability, T/C [29]: 0.44%; viability, T/C [30]: 1.23%
3 | COc1cc(Nc2ncc3c(n2)-c2ccc(Cl)cc2C(c2c(F)cccc2OC)=NC3)ccc1C(=O)O + CNCc1ccccc1-c1csc(C(C)Nc2nc(C)nc3cc(OC)c(OC)cc23)c1 | > 10000 nM | > 10000 nM | < 31.6 nM | < 31.6 nM | < 31.6 nM | 78.9% | 87% | 122% | 106% | 18.7% | 36.5% | 0.23% | 0.31% | 0.26% | 0.16% | 85.5% | 72.3% | 87.4% | 62.1% | 154% | viability, T/C [16]: 86.6%; viability, T/C [17]: 77.5%; viability, T/C [18]: 64.2%; viability, T/C [19]: 18.4%; viability, T/C [20]: 26%; viability, T/C [21]: 25.9%; viability, T/C [22]: 25.6%; viability, T/C [23]: 0.33%; viability, T/C [24]: 0.21%; viability, T/C [25]: 0.2%; viability, T/C [26]: 0.35%; viability, T/C [27]: 0.23%; viability, T/C [28]: 0.16%; viability, T/C [29]: 0.16%; viability, T/C [30]: 0.31%
4 | COc1cc2nccc(Oc3ccc(NC(=O)C4(C(=O)Nc5ccc(F)cc5)CC4)cc3)c2cc1OC + CNCc1ccccc1-c1csc(C(C)Nc2nc(C)nc3cc(OC)c(OC)cc23)c1 | 3210 nM | 1770 nM | < 31.6 nM | < 31.6 nM | < 31.6 nM | 86.3% | 93.1% | 85.5% | 86.8% | 45.3% | 52.9% | 0.08% | 0.19% | 0.14% | 0.17% | 107% | 91% | 50.1% | 48.1% | 81.9% | viability, T/C [16]: 72.3%; viability, T/C [17]: 27.2%; viability, T/C [18]: 21.9%; viability, T/C [19]: 39.5%; viability, T/C [20]: 25.4%; viability, T/C [21]: 0.22%; viability, T/C [22]: 1.76%; viability, T/C [23]: 0.35%; viability, T/C [24]: 0.07%; viability, T/C [25]: 0.04%; viability, T/C [26]: 0.2%; viability, T/C [27]: 0.13%; viability, T/C [28]: 0.12%; viability, T/C [29]: 0.13%; viability, T/C [30]: 0.21%
